Test results from paper PMC5854701 (Scientific Reports, 2018).

How the values were obtained:
Assay in all cases: microbe, parasite or virus in culture
[1] = tested on: A/Switzerland/9715293/2013 (H3N2)
[2] = tested on: B/Brisbane/60/2008 (Victoria); conditions: Influenza B virus
[3] = tested on: B/Phuket/3073/2013 (Yamagata); conditions: Influenza B virus
[4] = tested on: A/California/07/2009 (H1N1)
[5] = tested on: B/Wisconsin/1/2010 (Yamagata); conditions: Influenza B virus
[6] = tested on: B/Memphis/20/1996 (Yamagata); conditions: Influenza B virus
[7] = tested on: A/Washington/29/2009 (H1N1)
[8] = tested on: A/Denmark/528/2009 (H1N1)
[9] = tested on: B/Utah/09/2014 (Yamagata); conditions: Influenza B virus
[10] = tested on: A/Denmark/524/2009 (H1N1)
A/Texas/04/2009 (H1N1) = tested on: A/Texas/04/2009 (H1N1)

Structure (SMILES) | EC50 [1] | EC50 [2] | EC50 [3] | EC50 [4] | EC50 [5] | EC50 [6] | EC50 [7] | EC50 [8] | EC50 [9] | EC50 [10] | EC50 (A/Texas/04/2009 (H1N1))
C[C@@H](c1ccccc1)n1nnnc1[C@H](c1ccsc1)N1CCC(n2c(=O)[nH]c3ccccc32)CC1 [Compound 12a, 1‐{1‐[(S)‐{1‐[(1 S)‐1‐phenylethyl]‐1 H‐1,2,3,4‐tetrazol‐5‐yl}(thiophen‐3‐yl)methyl]piperidin‐4‐yl}‐2,3‐dihydro‐1 H‐1,3‐benzodiazol‐2‐one] | 1400 ± 600 nM | 600 ± 300 nM | 1200 ± 200 nM | 1300 ± 400 nM | 800 ± 300 nM | 2700 ± 200 nM | 900 ± 300 nM | 900 ± 300 nM | 1500 ± 300 nM | 800 ± 200 nM | 1100 ± 400 nM
O=c1[nH]c2ccccc2n1C1CCN(C(CCc2ccccc2)c2nnnn2-c2ccc3c(c2)OCCO3)CC1 (centres unmarked) [Compound 5, 1‐(1‐{1‐[1‐(2,3‐dihydro‐1,4‐benzodioxin‐6‐yl)‐1,2,3,4‐tetrazol‐5‐yl]‐3‐phenylpropyl}piperidin‐4‐ yl)‐3 H‐1,3‐benzodiazol‐2‐one] | – | 1000 ± 300 nM | – | 4500 ± 700 nM | 900 ± 200 nM | – | 1600 ± 500 nM | – | – | 1800 ± 400 nM | 3500 ± 1100 nM
